We go through seven molecules from patent US5594024A, “Centrally actig substituted phenylazacycloalkanes” (priority 1995, dated 1997).

Read-outs that look alike come from different tables or passages of the source.

One assay addresses T1, D2 receptors (Rattus norvegicus, UniProt P61169).
T1 construct: Preparation of rat striatal membranes for (3H)-spiperone; from tissue; host or cells: rat striatum (striatal membranes)
Put plainly: D2 antagonist binding ([3H]-spiperone), rat striatum. The protocol: D2 antagonist binding. Preparation of rat striatal membranes for (3H)-spiperone (specific activity 21-24 Ci/mmol) binding was carried out in a similar manner as described for D1-binding, Hyttel et al., J. Neural. Transm., 68, 171 (1987).
IC50 values were calculated by semi-log plot and linear regression analysis.

Another assay addresses T2, 5-HT1A (Rattus norvegicus, UniProt P19327).
T2 construct: the whole brain with the exception of the brainstem and cerebellum was rapidly removed; from tissue
T2 sequence (P19327 1-422): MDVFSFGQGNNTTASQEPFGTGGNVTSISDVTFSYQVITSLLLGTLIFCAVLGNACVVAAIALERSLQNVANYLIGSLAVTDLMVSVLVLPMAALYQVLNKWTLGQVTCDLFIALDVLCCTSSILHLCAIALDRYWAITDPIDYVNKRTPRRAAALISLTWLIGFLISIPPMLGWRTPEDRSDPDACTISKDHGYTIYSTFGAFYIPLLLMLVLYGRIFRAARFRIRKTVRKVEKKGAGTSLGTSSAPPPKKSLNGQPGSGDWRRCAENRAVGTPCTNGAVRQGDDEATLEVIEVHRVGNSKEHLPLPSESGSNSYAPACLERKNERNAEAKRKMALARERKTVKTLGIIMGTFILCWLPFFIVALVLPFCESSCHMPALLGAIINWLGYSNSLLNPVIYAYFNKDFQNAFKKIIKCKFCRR
Nature of the assay: 5-HT1A radioligand binding ([3H]-8-OH-DPAT). To be noted: [3H]-8-OH-DPAT, rat cortex; read-out: in vitro binding IC50, 5HT1A. On the set-up: species or system rat (male Sprague-Dawley). The protocol:
^b Serotonin 5HT1A ([^3 H]-8OH-DPAT, agonist) rat cortex.
5-HT1A radioligand binding. Male Sprague-Dawley rats (160-225 g) were killed by decapitation and the whole brain with the exception of the brainstem and cerebellum was rapidly removed, weighed and chilled in ice-cold 0.9% NaCl. Each brain was homogenized (Ultra-Turrax, 20 s) in 10 mL ice-cold 50 mM Tris buffer (pH 8.0 at 25° C.) containing 120 mM NaCl, 4 mM CaCl2 and 4 mM MgCl2 and centrifuged at 20,000 g's at 4° C. for 10 minutes. Pellets were resuspended in 10 mL fresh buffer and preincubated for 10 minutes in a 37° C. waterbath and then recentrifuged. Final pellets were homogenized in 100 volumes (w/v) of Tris buffer (as described above) containing 10 μM pargyline. The incubation tubes were kept on ice in triplicates and received 100 μL drug solution in water (or water for total binding) and 1000 μL membrane suspension (corresponds to 10 mg original tissue). The binding experiment was initiated by addition of 100 μL of (3H)-8-OH-DPAT (specific activity 143-158 Ci/mmol) in ascorbic acid (the final incubation concentration was 1 nM (3H)-8-OH-DPAT in 0.1% ascorbic acid). After incubation for 15 minutes at 37° C. the reaction was terminated by separation of the free radioligand from bound by rapid vacuum filtration using a cell harvester equipment (O. M. Teknik, Denmark). The tubes were rinsed with 4 mL and the filters (Whatman GF/F 25 mm) were washed twice with 4 mL ice-cold 0.9% NaCl.
The radioactivity of the filters was measured in a liquid scintillation counter (efficiency 41%) in 5 mL Picofluor®. Specific binding (70-75% of total binding) was defined as the radioactivity displaced by 10 μM 5-HT. IC50 values were calculated by semi-log plot and linear regression analysis.

Assay [1] concerns DA receptor. Nature of the assay: DA metabolism (DOPAC, HVA levels) in habituated rats. To be noted: Rattus norvegicus, 1 h; for response vs control in vivo at 6.2 µmol/kg: 6.2 μmol/kg sc; for response vs control in vivo at 25 µmol/kg: 25 μmol/kg sc. Format: in vivo, rat (male Sprague-Dawley). The protocol: (§1) Footnotes Table 3. The rats were habituated to the motility meters 60 min
The rats were immediately killed after the activity session, striata
(§2) and limbic levels of DOPAC and 5HIAA were measured by means of HPLCEC. *p
(§3) In the experiments with habituated rats no NSD was administered and the animals were killed one hour after drug administration. […] The levels were expressed as % of controls (DOPAC and 5-HIAA see Table 3). The in vivo brain microdialysis experiments were performed in conscious rats as described by Waters et al., Eur. J. Pharm., 187, 425-34 (1990).
(§4) Injection volumes were 5 mL/kg.
After the activity session the rats were killed and the brain levels of HVA and DOPAC were measured (data are expressed as means ±SEM).

In assay [2] the test system is 5-HT receptor. Nature of the assay: 5-HT metabolism (5-HIAA levels) in habituated rats. Format: in vivo, rat (male Sprague-Dawley). The protocol:
as §1
SEM. The rats were immediately killed after the activity session, striata
as §2, §3
Injection volumes were 5 mL/kg. […]

In another assay the test system is habituated rats. Put plainly: Locomotor activity and behavior in habituated rats. To be noted: habituated rats. Format: in vivo, rat (male Sprague-Dawley). As for the experimental part: as §1
prior to the activity session.
as §4
Locomotor activity was measured in rats which were habituated 60 minutes to the activity meters before drug injection. The activity was measured for the subsequent 60 minutes and expressed as % of controls (means ±SEM, n=4).

Assay [3] concerns 5-HT receptor. Put plainly: 5-HTP accumulation (5-HT synthesis rate) in non-pretreated rats after NSD 1015. Format: in vivo, rat (male Sprague-Dawley). As for the experimental part: observations are commented to the right. After the session the rats were
accumulation in the NErich cortical regions and 5HTP in the limbic
as §4

The test system of assay [4] is DA receptor. Put plainly: DOPA accumulation (DA synthesis rate) in non-pretreated rats after NSD 1015.
Procedure: injected with NSD 1015 (100 mg/kg, i.p.) and then killed 30 min later.
In-vivo determination of rat brain monoamine metabolites and tyrosine and tryptophan hydroxylation (biochemically monitored DA and 5-HT receptor agonist or antagonist activity).
The compounds under evaluation were tested biochemically for central DA and 5-HT receptor (pre- and/or postsynaptic) stimulating and/or blocking activity. The concept of this biochemical screening method is that a DA or 5-HT receptor agonist will stimulate the receptor and through regulatory negative feed-back systems induce a decline in tyrosine or tryptophan hydroxylating activity, respectively, and a subsequent reduction in the synthesis rate of DA and 5-HT in the presynaptic neuron. […] The biochemical experiments and the determinations of Dopa and 5-HTP by means of HPLC with electrochemical detection were performed. The antagonistic effects were seen as increases in the synthesis rate (n=4), as a result of the positive feed-back upregulation of synthesis. The effects on Dopa and 5-HTP accumulation are expressed as % of controls, which were: DOPA limbic system=447±23 ng/g and DOPA striatum=1045±47ng/g, 5-HTP limbic region 241±2 ng/g (Table 2).
Animals used in the biochemical and motor activity experiments were male rats of the Sprague-Dawley strain (ALAB, Sollentuna, Sweden), weighing 200-300 g. The rats were kept 5 per cage with free access to water and food (except for the starved animals for the experiments with per oral administration, who were only allowed water the last 18 hours before testing), at least one week from arrival until used in the experiments.
All substances to be tested were dissolved in saline immediately before use, occasionally with the addition of a few drops of glacial acetic acid and/or moderate heating in order to obtain complete dissolution. Injection volumes were 5 mL/kg.
Analysis of variance (ANOVA) followed by Fischer's test was used for the statistical calculations. P values less than 0.05 were regarded statistically significant.
DOPA accumulation (DA synthesis rate) in non-pretreated rats (Table 2). After the locomotor activity session (see Table 2, above) the rats were injected with the decarboxylase inhibitor NSD 1015 (100 mg/kg, sc) and killed 30 minutes later. The DOPA accumulation in the DA -rich limbic and striatal and the NE-rich cortical (mainly hemispheres) brain areas were expressed as % of saline treated controls.
DOPA accumulation, time course after s.c. and p.o. administration (Table 2). […] NSD 1015 (100 mg/kg, sc) was injected 30 minutes before death. The data are expressed as % of saline treated controls.
For a further assay, the system named is non-pretreated rats. Put plainly: Locomotor activity and gross behavior in non-habituated (non-pretreated) rats. To be noted: non-pretreated rats; for Motor Act.: 30 min.
The mark [5] stands for this setting: [3H]-spiperone, rat striatum, read-out: in vitro binding IC50, D2 -spip.
The mark [6] stands for this setting: 100 μmol/kg sc, habituated rats, read-out: DOPAC limbic.
The mark [7] stands for this setting: 100 μmol/kg sc, habituated rats, read-out: DOPAC striatum.
[8] abbreviates: Rattus norvegicus, 1 h, 100 μmol/kg sc, 60 min, read-out: Motor Activity.
The mark [9] stands for this setting: habituated rats, read-out: DOPAC limbic.
[10] abbreviates: habituated rats, read-out: DOPAC striatum.

T1 sequence (P61169 whole entry): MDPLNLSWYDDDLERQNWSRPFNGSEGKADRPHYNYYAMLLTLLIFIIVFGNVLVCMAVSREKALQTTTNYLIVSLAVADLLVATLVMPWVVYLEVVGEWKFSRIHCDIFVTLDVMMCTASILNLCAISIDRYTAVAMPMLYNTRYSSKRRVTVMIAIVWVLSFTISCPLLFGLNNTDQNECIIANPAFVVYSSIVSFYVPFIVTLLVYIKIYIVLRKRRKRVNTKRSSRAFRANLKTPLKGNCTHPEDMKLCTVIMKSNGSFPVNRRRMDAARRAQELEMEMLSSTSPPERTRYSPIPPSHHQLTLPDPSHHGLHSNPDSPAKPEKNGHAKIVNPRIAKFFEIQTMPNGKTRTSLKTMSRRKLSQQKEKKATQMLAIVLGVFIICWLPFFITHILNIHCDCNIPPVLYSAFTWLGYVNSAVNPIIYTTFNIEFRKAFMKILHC

The term IC50 denotes the midpoint of a concentration-inhibition curve. In the case of `C=CCN1CCC[C@@H](c2cccc(OS(=O)(=O)C(F)(F)F)c2)C1` [Compound S-17, S-3-((3-(Trifluoromethyl)sulfonyl)oxyphenyl-N-allyl)piperidine], the IC50 came out at 28 µM on D2 receptors (setting [5]) and 4200 nM on 5-HT1A. The response vs control in vivo at 100 µmol/kg with DA receptor [1] (setting [6]) stood at 159 ± 18%; in the assay with DA receptor [1] (setting [7]), 222 ± 12%; in the assay with habituated rats (setting [8]), 195 ± 13%. Besides, the 5-HIAA limbic in the assay with 5-HT receptor [2] (100 μmol/kg sc) is recorded as 93 ± 6 % of saline treated controls. Besides, the Behavioral observations result with habituated rats (100 μmol/kg sc) is listed as “Activation”.
As for `CCCN1CCC[C@@H](c2cccc(OS(C)(=O)=O)c2)C1` [Compound S-22, S-3-((3-Methylsulfonyl)oxyphenyl-N-n-propyl)piperidine], the IC50 at D2 receptors (setting [5]) was 25 µM; at 5-HT1A, 1700 nM. Besides, the response vs control in vivo at 100 µmol/kg turned out to be 209 ± 11% in the assay on DA receptor [1] (setting [6]), 276 ± 12% in the assay with DA receptor [1] (setting [7]) and 550 ± 50% in the assay on habituated rats (setting [8]). Also, the 5-HIAA limbic with 5-HT receptor [2] (100 μmol/kg sc) is given as 118 ± 11 % of saline treated controls. Also, the Behavioral observations result in the assay on habituated rats (100 μmol/kg sc) is “Activation”.
Turning to `C=Cc1cccc([C@@H]2CCCN(CCC)C2)c1` [Compound S-41, S-3-(3-Vinylphenyl-N-n-propyl)piperidine], the IC50 on D2 receptors (setting [5]) was 3.5 µM; at 5-HT1A, 460 nM. Also, the response vs control in vivo at 100 µmol/kg with DA receptor [1] (sc, read-out: DOPAC limbic) is 136 ± 15%; in the assay with DA receptor [1] (sc, read-out: DOPAC striatum) it was 134 ± 13%; with habituated rats (setting [8]), 529 ± 204%. Moreover, the 5-HIAA limbic in the assay with 5-HT receptor [2] (100 μmol/kg sc) was 92 ± 14 % of saline treated controls. Further, in the assay with habituated rats (100 μmol/kg sc), the Behavioral observations entry is listed as “Activation”.
For `CN1CCC[C@@H](c2cccc(OS(=O)(=O)C(F)(F)F)c2)C1` [S-(+)-13, S-(+)-3-((3-(Trifluoromethyl)sulfonyl)oxyphenyl-N-methyl)-piperidine], the results for the IC50 at D2 receptors (setting [5]) and at 5-HT1A were 71 µM and 2800 nM, respectively. Also, the response vs control in vivo at 100 µmol/kg worked out at 138 ± 10% in the assay with DA receptor [1] (setting [6]), 172 ± 11% with DA receptor [1] (setting [7]) and 135 ± 14% with habituated rats (setting [8]). In the assay with 5-HT receptor [2] (100 μmol/kg sc), the 5-HIAA limbic is listed as 109 ± 2 % of saline treated controls. Besides, the Behavioral observations entry with habituated rats (100 μmol/kg sc) is “No change”.
Take `CCN1CCC[C@@H](c2cccc(OS(=O)(=O)C(F)(F)F)c2)C1` [S-(-)-14, S-(-)-3-((3-(Trifluoromethyl)sulfonyl)oxyphenyl-N-ethyl)-piperidine]: the IC50 was 7.1 µM at D2 receptors (setting [5]) and 1300 nM on 5-HT1A. Further, the “5-HTP acc Limbic Region” value with 5-HT receptor [3] (100 sc) is 76 ± 9 % of saline controls. Also, the response vs control in vivo at 100 µmol/kg in the assay on DA receptor [1] (setting [6]) came out at 223 ± 39%; in the assay with DA receptor [1] (setting [7]) it was 293 ± 29%; with habituated rats (setting [8]), 404 ± 205%. In addition, the 5-HIAA limbic in the assay with 5-HT receptor [2] (100 μmol/kg sc) is 98 ± 33 % of saline treated controls. In the assay with habituated rats (100 μmol/kg sc), the Behavioral observations result is given as “Activation”. For the same molecule, in the assay with DA receptor [4] (100 sc), the “DOPA acc Cortex” value was 80 ± 4 % of saline controls. In the assay on DA receptor [4] (100 sc), the “DOPA acc Stratium” value is given as 286 ± 33 % of saline controls. Further, the “Gross Behavioral Observations” value in the assay on non-pretreated rats (100 sc) is given as “No change”. Moreover, the “Motor Act.” value in the assay on non-pretreated rats (100 sc) is on record as 103 ± 19 % of saline controls.
On to `CCCN1CCC[C@@H](c2cccc(OS(=O)(=O)C(F)(F)F)c2)C1` [S-(-)-15, S-(-)-3-((3-(Trifluoromethyl)sulfonyl)oxyphenyl-N-n-propyl)-piperidine], for which the half-maximal inhibitory concentration (IC50) stood at 1.6 µM at D2 receptors (setting [5]) and 2300 nM at 5-HT1A. For the same molecule, the response vs control in vivo at 6.2 µmol/kg in the assay on DA receptor [1] (setting [9]) stood at 134 ± 10%; in the assay on DA receptor [1] (setting [10]), 118 ± 10%. For the same molecule, the response vs control in vivo at 25 µmol/kg in the assay with DA receptor [1] (setting [9]) was 145 ± 11%; with DA receptor [1] (setting [10]), 175 ± 8%; in the assay on habituated rats (Rattus norvegicus, 1 h, 25 μmol/kg sc, 60 min, read-out: Motor Activity), 128 ± 33%. In addition, the response vs control in vivo at 100 µmol/kg amounted to 196 ± 16% in the assay on DA receptor [1] (setting [6]), 217 ± 3% in the assay on DA receptor [1] (setting [7]) and 445 ± 131% with habituated rats (setting [8]). Moreover, the results for the 5-HIAA limbic with 5-HT receptor [2] (6.2 μmol/kg sc), in the assay on 5-HT receptor [2] (25 μmol/kg sc) and in the assay with 5-HT receptor [2] (100 μmol/kg sc) were 139 ± 9 % of saline treated controls, 126 ± 5 % of saline treated controls and 140 ± 11 % of saline treated controls, respectively. Further, the Behavioral observations result is recorded as “No change” in the assay on habituated rats (6.2 μmol/kg sc), “No change” with habituated rats (25 μmol/kg sc) and “Activation” in the assay with habituated rats (100 μmol/kg sc). Moreover, in the assay on habituated rats (6.2 μmol/kg sc, 60 min), the “Motor Activity” value was 91 ± 94 % of saline treated controls.
On to `CCN1CCC[C@@H](c2cccc(C#N)c2)C1` [S-(-)-33, S-(-)-3-(3-Cyanophenyl-N-ethyl)piperidine], for which the IC50 on D2 receptors was 14 µM; at 5-HT1A it was 22000 nM. Besides, the “5-HTP acc Limbic Region” value in the assay with 5-HT receptor [3] (25 sc) is listed as 83 ± 3 % of saline controls; with 5-HT receptor [3] (100 sc), 77 ± 3 % of saline controls. Moreover, the response vs control in vivo at 100 µmol/kg with DA receptor [1] (sc, read-out: DOPAC limbic) is 153 ± 15%; in the assay with DA receptor [1] (sc, read-out: DOPAC striatum), 167 ± 8%; in the assay on habituated rats (setting [8]) it was 431 ± 80%. Moreover, in the assay on habituated rats (100 μmol/kg sc), the Behavioral observations entry is on record as “Activation”. In addition, the “DOPA acc Cortex” value is 108 ± 7 % of saline controls in the assay on DA receptor [4] (25 sc) and 137 ± 7 % of saline controls with DA receptor [4] (100 sc). The “DOPA acc Stratium” value in the assay on DA receptor [4] (25 sc) is 282 ± 11 % of saline controls; in the assay on DA receptor [4] (100 sc), 318 ± 19 % of saline controls. The entries for the “Gross Behavioral Observations” value in the assay on non-pretreated rats (25 sc) and in the assay with non-pretreated rats (100 sc) were “Weak stimul” and “No change”, respectively. Moreover, the figures for the “Motor Act.” value in the assay with non-pretreated rats (25 sc) and in the assay on non-pretreated rats (100 sc) were 157 ± 7 % of saline controls and 113 ± 7 % of saline controls, respectively.
